Data: US11912713B2, “7-membered aza-heterocyclic containing delta-opioid receptor modulating compounds, methods of using and making the same” (Trevena, Inc., priority 2017, dated 2024)

Assays:
adult male C57 mice = test: Tail suspension test (TST); assay type: in vivo, mouse
Method: The experiments were performed using adult male C57 mice (6-10 weeks of age, 20-30 g, Hilltop Lab, PA). The mice were housed in standard rodent cages with stainless steel mesh wire bar lids in groups of 4 with controlled temperature and light cycle (6:00 a.m.-6:00 p.m.). Animals were given free access to food (Harlan Teklad Global 18% protein (Madison, WI)) and water during a minimum 2-day habituation period to the laboratory. Animals that were used in the study were handled, housed, and sacrificed (using compressed CO2) in accord with the current NIH guidelines regarding the use and care of laboratory animals, and all applicable local, state, and federal regulations and guidelines. Animals are identified by cage number, and by markings applied to the proximal tip of the tail using a permanent marker. Group sizes (n=8, and therefore 30-50 animals per study) provide reliable estimates of treatment effects, and this species and strain of mouse has been recognized as appropriate for pharmacology studies.
To measure efficacy of the compounds the compounds were tested using a tail suspension test. The tail suspension test is a behavioral test used to evaluate the efficacy of antidepressant drugs in rodents. In the TST, mice (n=8/group) were suspended by the tail with tape approximately 30-50 cm above the lab bench. Mice are positioned such that the base of their tail is perpendicular to the lab bench. Each mouse is given 1 trial that last 6 minutes. The total duration of immobility is calculated as the percentage of time that the mouse is immobile. The duration of immobility is the main parameter measured. This is calculated from the cumulated time during which the animals is absent of initiated movements including passive swaying. When antidepressant drugs are administered, immobility is decreased by a variety of classes of antidepressant drugs. One or more of the compounds show antidepressant activity.

[1] = target: T1, delta-opioid receptor (hDOR) (Homo sapiens, UniProt P41143); test: cAMP assay (receptor G-protein mediated response); assay type: cell-based; settings: efficacy, normalized against DPDPE
Method: (§1) Clonal stable lines were subsequently selected under G418.
(§2) Cell lines were grown adherently in Minimum Essential Media (Cellgro cat #10-010-CM) containing 10% fetal bovine serum (Hyclone cat #SH30071.03), 4 mM glutamine (Cellgro cat #25-005-CI), 150 ug/ml hygromycin B (Cellgro cat #30-240-CR), 150 ug/ml G418 (Cellgro cat #30-234-CR), and 50 u/50 ug penicillin/streptomycin (Lonza cat #17-603E). Prior to the assay cells were removed from the flasks with CellStripper (Cellgro cat #25-056-CI), repeatedly pipetted to disperse cells, and spun at low speed for 5 min at room temperature. Cells were then resuspended at 250,000 cells/ml in growth media and plated at 5,000 cells/well in 384 well plates (Greiner part #784080). Plates were incubated overnight at 37° C., 5% CO2 in a humidified incubator.
Receptor G-protein mediated responses were determined by measuring changes in intracellular cAMP using CisBio HTRF cAMP HiRange kit (cat #62AM6PEJ) based on time-resolved fluorescence resonance energy transfer (TR-FRET). […] Following a 30 minute incubation at 37° C. the components of the cAMP HiRange kit were added as directed and the plates were read after 1 hour on a BMG PheraStar plate reader. Responses were measured as the ratio of fluorescence at 665 nm/620 nm per manufacturer's instructions.

[2] = target: T1, delta-opioid receptor (hDOR); test: β-Arrestin recruitment assay (PathHunter); assay type: cell-based
Method: as §1, §2
Receptor mediated beta-arrestin recruitment was determined using the DiscoveRx β-arrestin PathHunter Detection kit (cat #93-0001). In this system, β-Arrestin is fused to an N-terminal deletion mutant of β-galactosidase (termed the enzyme acceptor of EA) and the GPCR of interest is fused to a smaller (42 amino acids), weakly complementing fragment termed ProLink™. […] Following a 60 minute incubation at 37° C. the components of the DiscoveRx β-arrestin PathHunter Detection kit were added as directed and the plates were read after 1 hour on a BMG PheraStar plate reader.

[3] = tested on: mu- and kappa-opioid receptors; settings: versus mu- and kappa-opioid receptors
Description: Plasmids encoding delta-opioid receptor (Accession NP_000902), mu-opioid receptor (Accession NP_000905) and kappa-opioid receptor (Accession Assession NP_000903) were generated in the pCMV-Prolink backbone and transfected into an EA-arrestin parental human embryonic kidney (HEK-293) cell line from DiscoveRx Corporation. Clonal stable lines were subsequently selected under G418.
The values are normalized against DPDPE ([D-Pen2,5]Enkephalin, [D-Pen2,D-Pen5]Enkephalin), which is a known agonist of the receptor. Compound selectivity was also evaluated by testing compounds on the mu- and kappa-opioid receptors, the values from which were normalized against DAMGO ([D-Ala2, N-Me-Phe4, Gly5-ol]-Enkephalin acetate salt) and U69,593, respectively.

T1 sequence (P41143 whole entry): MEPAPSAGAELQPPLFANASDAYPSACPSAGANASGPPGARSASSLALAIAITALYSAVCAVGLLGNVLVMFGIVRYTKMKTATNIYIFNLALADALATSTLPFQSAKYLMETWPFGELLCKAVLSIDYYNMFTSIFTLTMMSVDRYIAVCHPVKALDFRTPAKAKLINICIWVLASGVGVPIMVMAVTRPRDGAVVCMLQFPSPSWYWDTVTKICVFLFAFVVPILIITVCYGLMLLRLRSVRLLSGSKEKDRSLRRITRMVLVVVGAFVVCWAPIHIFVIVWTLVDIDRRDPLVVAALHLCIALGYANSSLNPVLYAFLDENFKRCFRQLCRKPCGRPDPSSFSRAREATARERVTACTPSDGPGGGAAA

With CCCN1CC[C@@H](COc2ccc3c(c2)C(=O)NC3)[C@H](c2ccc(OC)cc2)CC1 (racemic) [Compound C0004, (±)-6-{((trans)-5-(4-methoxyphenyl)-1-propylazepan-4-yl]methoxy}-2,3-dihydro-1H-isoindol-1-one] the “Active TST Dose” value (adult male C57 mice; route sc) was ≤30 mg/kg.

With CCCN1C2CCC1CC(c1ccc(OC)cc1)=C(COc1ccc3c(c1)C(=O)NC3)C2 (racemic) [Compound C0066, 6-{[4-(4-methoxyphenyl)-9-propyl-9-azabicyclo[4.2.1]non-3-en-3-yl]methoxy}-2,3-dihydro-1H-isoindol-1-one] the “Active TST Dose” value (adult male C57 mice; route sc) was ≤10 mg/kg.

For CCCN1C2CCC1CC(c1ccc(OC)cc1)C(CCc1ccc3c(c1)C(=O)NC3)C2 (stereo not drawn) [Compound C0084, 6-{2-((cis)-4-(4-methoxyphenyl)-9-propyl-9-azabicyclo[4.2.1]nonan-3-yl]ethyl}-2,3-dihydro-1H-(trans)-isoindol-1-one], the “Active TST Dose” value (adult male C57 mice; route sc) was ≤30 mg/kg.

In the case of COc1ccc(C2CCN(CCc3ccccc3)C(C)CC2COc2ccc3c(c2)C(=O)NC3)cc1 (stereo not drawn) [Compound C0457, 6-{[(trans)-5-(4-methoxyphenyl)-2-methyl-1-(2-phenylethyl)azepan-4-yl]methoxy}-2,3-dihydro-1H-isoindol-1-one], the “Active TST Dose” value (adult male C57 mice; route po) is reported as ≤60 mg/kg.

Fc1ccc([C@@H]2CCNC[C@H]2COc2ccc3c(c2)OCO3)cc1 [Paroxetine] was tested, and the “hDOR G Span” value [1] was <100, the “hDOR B Span” value ([2]; efficacy, normalized against DPDPE) was <100 and the EC50 ([2]; β-arrestin recruitment, HEK-293 cells, read-out: hDOR B pEC50 (converted)) was > 1000 nM. The “selectivity for the delta-opioid receptor” value [3] was “non-selectivity”.
